# “Also recorded” adds a separate entry of the source.
# Key:
# [1] = system: heat shock proteins (HSPs) in RPMI-8226 multiple myeloma cells; experiment: LC-MRM quantification of HSP expression before and 24 hours after 17-DMAG (Example 1); type: cell-based, human; conditions: 106 nM 17-DMAG
# Method: Monitoring HSPs in multiple myeloma cells. RPMI-8226 multiple myeloma cells were cultured in suspension as described above with the addition of 100 units/mL penicillin/streptomycin. Stock 17-dimethylaminoethylamino-17-demethoxy-geldanamycin (17-DMAG) was dissolved in DMSO at a concentration of 10 mM. Based on prior IC50 measurements, the RPMI-8226 cells were treated with 106 nM 17-DMAG for 24 hours.
# RPMI-8226 cells (n=10^6) were lysed using […] aqueous 8M urea with 100 mM ammonium bicarbonate. Protein concentration was measured by the Bradford assay and 0.38 μg of protein (equivalent to 3,750 cells) was injected for LC-MRM analysis of control and drug-treated samples. The proteins were reduced with 2 mM TCEP, alkylated with 20 mM IAA, and digested overnight in solution with trypsin at 37° C. Corresponding stable-isotope-labeled internal standard peptides were added to the samples after digestion. Then, peptides were extracted using pipette tips packed with C18 reversed-phase resin (Ziptip, Millipore; Billerica, Mass.) and concentrated to dryness by vacuum centrifugation (Speedvac, Thermo), and resuspended in aqueous 2% ACN with 0.1% formic acid prior to MS. LC-MRM was performed as described above. Quantification is achieved by using the sum of the peak areas for all detected transitions using QuanBrowser (Xcalibur, Thermo, San Jose, Calif.) or Skyline. The ratio of peak area of the endogenous peptide over corresponding internal standard was calculated for each peptide in the sample to enable absolute and relative quantification. Relative protein expression after treatment was normalized to the pretreatment control for each cell line and plotted to show the change in expression after drug treatment. Bubble plots were created using the SigmaPlot 10 (SPSS).
# M229R xenografts = experiment: Xenograft experiment; type: in vivo, BALB SCID mice; conditions: 100 mg/kg, PO, 3× week, 15 days
# Method: (§1) Xenograft experiments. BALB SCID mice (The Jackson Laboratory, Bar Harbor, Me.) were subcutaneously injected with 2.5×10^6 cells per mouse (resuspended in 111 μL L-15 media, 10 mM HEPES, 37.5 μL Matrigel). Tumors were grown to approximately 100 mm^3 prior to dosing. Mice were treated with either 100 mg XL888/kg (n=5) or an equivalent volume of vehicle (10 mM HCl), 3 times per week by oral gavage. Mouse weights and tumor volumes (L×W2/2) were measured 3 times per week. Upon completion of the experiment, vehicle and drug treated tumor biopsies were processed for LC-MRM analysis (as above).
# [2] = system: HSP90 client and apoptosis proteins in vemurafenib-resistant melanoma cell lines; experiment: Western blotting; type: cell-based
# From the text: Western blotting. Proteins were extracted and blotted for as described previously (Smalley et al., Br. J. Cancer 96:445-9 (2007)). […] The antibodies to IGF1R, PDGFRβ, ARAF, CRAF, phospho-AKT Ser473, total AKT, phospho-ERK, total ERK, cyclin D1, phospho-S6, total S6, phospho-BIM (Ser69), total BIM, HSP70 and MCL-1 were from Cell Signaling Technology (Beverly, Mass.). Anti-26S was purchased from Abcam (Cambridge, Mass.), and the antibody against COT was from Santa Cruz Biotechnology (Santa Cruz, Calif.).
# [3] = system: vemurafenib sensitive and naïve cell lines; experiment: Cell cycle analysis, propidium iodide flow cytometry; type: cell-based; conditions: 300 nM, 24 hours
# Method: FIGS. 15A, 15B, 15C, 15D, 15E, 15F, and 15G show the HSP90 inhibitor XL888 blocks the growth and survival of melanoma cell lines with diverse mechanisms of vemurafenib resistance. FIGS. 15A and 15B are graphs showing growth (%) of matched pairs of vemurafenib naïve and resistant melanoma cell lines and melanoma cell lines with intrinsic resistance. In FIG. 15A, cells were treated with increasing concentrations of vemurafenib (1 nM-10 μM: 72 hrs) before being subject to the MTT assay. […] FIGS. 15C to 15E are bar graphs showing the cell cycle effects of XL888 (300 nM: 24 hours) upon vemurafenib sensitive and naïve cell lines. Cells were fixed, stained with propidium iodide and distributions analyzed by flow cytometry. FIG. 15F-G are bar graphs showing that XL888 induced apoptosis in every model of acquired vemurafenib resistance tested. Cells were treated for either 72 or 144 hours with XL888 (300 nM) followed by Annexin-V. Apoptosis was measured by flow cytometry.
# [4] = system: FOXO3a in M229R and 1205LuR cells; experiment: Immunofluorescent staining; type: cell-based; conditions: 48 hours; XL888 300 nM, GDC-0941 3 μM
# Method: Immunofluorescent staining. M229R and 1205LuR cells were seeded at 50% confluency onto glass coverslips in a 12 well plate and allowed to adhere overnight. […] Fixed cells were separately stained by incubating overnight with rabbit anti-BIM or anti-FOXO3a antibodies followed by staining with secondary anti-rabbit AF488. Cells were then mounted onto slides with ProLong Gold Antifade containing DAPI (Invitrogen) and imaged with a Leica confocal microscope equipped with a 40x oil immersion lens.
# intratumoral HSP70 = experiment: LC-MRM analysis of xenograft samples; type: in vivo, BALB SCID mice; conditions: 15-days of treatment, 100 mg/kg
# Method: Liquid chromatography, multiple reaction monitoring mass (LC-MRM) spectrometry (LC MRM) analysis. LC-MRM was performed as described in (Remily-Wood et al., Proteomics Clin. App. 5:383-96 (2011)). Protein expression was determined using the ratio of peak area of the native peptide to corresponding internal standard; normalization of tissue results was performed using GAPDH to control for cellularity (Table 9). Data were then normalized to the pretreatment (cell lines) or vehicle controls (tissue) and plotted to show the changes in expression after drug treatment.
# as §1
compound,measurement,setting,value
"CO[C@H]1/C=C\C=C(/C)C(=O)NC2=CC(=O)C(NCCN(C)C)=C(C[C@@H](C)C[C@H](OC)[C@H](O)[C@@H](C)/C=C(\C)[C@@H]1OC(N)=O)C2=O [17-DMAG, 17-Dimethylaminoethylamino-17-demethoxygeldanamycin]",H90B2 Post-Treatment,[1],25.3 amol/cell
same,HSPB3 Post-Treatment,[1]; peptide ADLINNLR,0.14 amol/cell
same,HSP74 Post-Treatment,[1]; peptide AFSDPFVEAEK,0.89 amol/cell
same,HS90B Post-Treatment,[1]; peptide ALLFIPR,14.5 amol/cell
same,HS90A Post-Treatment,[1]; peptide ALLFVPR,20.9 amol/cell
same,HSP72 Post-Treatment,[1]; peptide EIAEAYLGGK,0.39 amol/cell
same,HSP7C Post-Treatment,[1]; peptide GTLDPVEK,14.9 amol/cell
same,CDC37 Post-Treatment,[1]; peptide LQAEAQQLR,0.91 amol/cell
same,HSP71 Post-Treatment,[1]; peptide NQVALNPQNTVFDAK,0.051 amol/cell
same,GRP78 Post-Treatment,[1]; peptide VEIIANDQGNR,110 amol/cell
same,CDC37 Ratio,[1]; post- vs pre-treatment,1.07
same,GRP78 Ratio,[1]; post- vs pre-treatment,2.25
same,H90B2 Ratio,[1]; post- vs pre-treatment,1.57
same,HS90A Ratio,[1]; post- vs pre-treatment,1.87
same,HS90B Ratio,[1]; post- vs pre-treatment,1.84
same,HSP7C Ratio,[1]; post- vs pre-treatment,1.93
same,HSP71 Ratio,[1]; post- vs pre-treatment,3.95
same,HSP72 Ratio,[1]; post- vs pre-treatment,1.21
same,HSP74 Ratio,[1]; post- vs pre-treatment,1.23
same,HSPB3 Ratio,[1]; post- vs pre-treatment,1.25
"CC[C@@H](C)Nc1cc(C(=O)N[C@@H]2C[C@H]3CC[C@@H](C2)N3c2ccc(C(=O)C3CC3)cn2)c(C)cc1C(N)=O [XL888, 5-((R)-sec-butylamino)-N1-((1R,3s,5S)-8-(5-(cyclopropanecarbonyl)pyridin-2-yl)-8-azabicyclo[3.2.1]octan-3-yl)-2-methylterephthalamide]",regression of established M229R xenografts,M229R xenografts,significantly induce the regression; also recorded: significant levels of tumor regression
same,"26S proteasome, Western blot","[2]; 300 nM, 48 hours",partly degrade the 26S proteasome
same,BIM phosphorylation at Ser69,"[2]; 300 nM, 48 hours, all cell lines tested apart from M249R",decreased BIM phosphorylation at Ser69
same,client protein degradation and signaling,"[2]; 300 nM, 48 hours, all cell lines with acquired BRAF inhibitor resistance","degradation of IGF1R, PDGFRβ, ARAF, CRAF and cyclin D1 and the inhibition of AKT, ERK and S6 signaling"
same,BIM expression,"[2]; 300 nM, 48 hours, entire cell line panel",increased BIM expression across the entire cell line panel
same,"HSP70 expression, Western blot","[2]; 300 nM, 48 hours, every cell line evaluated",increases in HSP70 expression
same,"expression of Mcl-1, Western blot","[2]; 300 nM, 48 hours, resistance through PDGFRβ, COT overexpression and two unknown mechanisms",marked decrease in the expression of Mcl-1
same,COT and cyclin D1 expression,"[2]; intrinsically vemurafenib-resistant RPMI7951 and WM39, respectively",degrade both COT and cyclin D1
same,cell cycle effect,"[3]; WM164, M229, M229R, M249, M249R, 1205Lu, WM39",G1-phase cell cycle arrest
same,cell cycle effect,"[3]; WM164R, 1205LuR, RPMI 7951",G2/M phase cell cycle arrest
same,nuclear accumulation of FOXO3a,[4],highly efficient at increasing nuclear accumulation of FOXO3a
same,increase in intratumoral HSP70 expression compared to controls,intratumoral HSP70,8.6 fold

# Source: patent US20210100777A1, “HEAT SHOCK PROTEIN (HSP) INHIBITION AND MONITORING EFFECTIVENESS THEREOF” (H. LEE MOFFITT CANCER CENTER AND RESEARCH INSTITUTE, INC., priority 2013, published 2021)
